Article PMC10258794, “To Fold or Not to Fold: Diastereomeric Optimization of an α-Helical Antimicrobial Peptide” (Journal of Medicinal Chemistry, 2023)
Converted amounts (≈) assume the structure as drawn. Like-named read-outs stand apart in the source and are kept apart here. Non-standard residues stand in square brackets, D forms with d. Residues, ends and D or L forms follow the SMILES beside them.

What was measured:
human red blood cells = experiment: Hemolysis assay (MHC)
Procedure: To determine the MHC stock solutions, 8 mg/mL peptide in PBS (pH 7.4) was prepared, and 50 μL was diluted serially by l/2 in 50 μL of PBS (pH 7.4) in a 96-well plate (Costar or Nunc, polystyrene, untreated). […] Plasma was discarded, and the pellet was re-suspended in a 15 mL Falcon tube in 5 mL of PBS. The washing was repeated three times, and the remaining pellet was re-suspended in 10 mL of PBS. The hRBC suspension (50 μL) was added to each well, and the plate was incubated at room temperature for 4 h. MHC end points were determined by visual determination of the wells after the incubation period. Controls on each plate included a blank medium control (50 μL PBS + 50 μL of hRBCs suspension) and a hemolytic activity control (mQ-deionized water 50 μL + 50 μL hRBC suspension).

P. aeruginosa PAO1 = system: P. aeruginosa PAO1
Procedure: (§1) Antimicrobial activity was determined for all peptides on E. coli W3110, P. aeruginosa PAO1, A. baumannii ATCC19606, K. pneumoniae NCTC418, and methicillin-resistant S. aureus COL and for selected peptides on P. aeruginosa PA14 and the polymyxin B-resistant derivatives PA14 4.13, PA14 4.18, and PA14 2P4 as well as the clinical isolates ZEM-1A and ZEM9A, K. pneumoniae OXA-48, Enterobacter cloacae, Stenotrophomonas maltophilia, B. cenocepacia, and Staphylococus epidermis. To determine the MIC, the broth microdilution method was used.[75] A single bacterial colony was grown in LB medium overnight at 37 °C and 180 rpm shaking. The compounds were prepared as stock solutions of 2 mg/mL in sterilized milliQ deionized water, added to the first well of 96-well sterile, polypropylene round-bottom microtiter plates (TPP, untreated, Corning Incorporated, Kennebunk, USA), and diluted serially by 1/2. […] The bacterial inoculum was prepared by measuring the absorbance of the overnight culture, which was diluted to concentration of the bacteria was quantified by measuring absorbance at 600 nm and diluted to an OD600 of 0.022 in MH medium pH 7.4 (Sigma-Aldrich, Buchs, Switzerland). The sample solutions (150 μL) were mixed with 4 μL of diluted bacterial suspension with a final inoculation of about 5 × 10^5 CFU. For each test, two columns of the plate were kept for sterility control (MH medium only) and growth control (MH medium with bacterial inoculum, no compound). […] The plates were incubated at 37 °C for 16–20 h under static conditions. 15 μL of 3-(4,5-dimethylthiazol-2-yl)-2,5-diphenyltetrazolium bromide (MTT)[76] (1 mg/mL in sterilized milliQ deionized water) was added to each well, and the plates were incubated at room temperature until MTT staining was completed. The MIC was defined as the lowest concentration of the dendrimer that inhibits the visible growth of the tested bacteria (yellow) with the unaided eye.

A. baumannii ATCC19606 = system: A. baumannii ATCC19606
Procedure: as §1

K. pneumoniae NCTC418 = system: K. pneumoniae NCTC418
Procedure: as §1

S. aureus COL MRSA = system: S. aureus COL MRSA
Procedure: as §1

E. coli W3110 = system: E. coli W3110
Procedure: as §1

[1] = EYPC vesicle leakage assay; type: biochemical; conditions: 10 μg/mL of compound; 10 mM TRIS, 107 mM NaCl, pH 7.4
Procedure: 5(6)-carboxyfluorescein (CF) was purchased from Sigma. EYPC, EYPG, and a Mini-Extruder were purchased from Avanti Polar Lipids. Egg PC or Egg PG thin lipid layers were prepared by evaporating a solution of 100 mg of EYPC or EYPG in 4 mL of MeOH/CHCl3 (1:1) on a rotary evaporator at room temperature and then dried in vacuo overnight. […] Extravesicular components were removed by gel filtration (Sephadex G-50) with 10 mM TRIS, 107 mM NaCl, pH 7.4 buffer. Final conditions: ∼2.5 mM PC or PG; inside: 50 mM CF, 10 mM TRIS, 10 mM NaCl, pH 7.4 buffer; outside: 10 mM TRIS, 107 mM NaCl, pH 7.4. […] The CF efflux was monitored at λem 517 nm (λex 492 nm) as a function of time after addition of the desired volume of peptide from 2 mg/mL stock in mQ water at t = 45 s, 10 and 50 μg/mL were monitored for both EYPC and EYPG. […] Fluorescence intensities were then normalized to the maximal emission intensity using I(t) = (It – I0)/(I∞ – I0) where I0 = It at peptide addition, I∞ = It at saturation of lysis.

P. aeruginosa ZEM-1A = experiment: microbe, parasite or virus in culture; conditions: ZEM-1A
Procedure: as §1

[2] = MH broth pH 7.4, 16–20 h, 37 °C
[3] = supplementary CSV, ranges of Table 1 given as one number

Compound: CC[C@H](C)[C@H](NC(=O)[C@@H](NC(=O)[C@@H](NC(=O)[C@@H](CCCNC(=N)N)NC(=O)[C@@H](NC(=O)[C@@H](NC(=O)[C@@H](CCCNC(=N)N)NC(=O)[C@@H](NC(=O)[C@@H](NC(=O)[C@@H](CCCNC(=N)N)NC(=O)[C@H](N)CCCNC(=N)N)[C@@H](C)CC)[C@@H](C)CC)[C@@H](C)CC)[C@@H](C)CC)[C@@H](C)CC)[C@@H](C)CC)C(N)=O [HP37, rrIIrIIrIII] (H-[dR][dR]II[dR]II[dR]III-NH2)
- MHC (human red blood cells): 250 µg/mL
- MHC (human red blood cells; pH 7.4): 250 µg/mL
- MIC P. aeruginosa PAO1 (P. aeruginosa PAO1; PAO1): 6 µg/mL (≈ 4.18 µM)
- MIC P. aeruginosa PAO1 (P. aeruginosa PAO1; PAO1, pH 7.4): 4 to 8 µg/mL
- MIC A. baumannii ATCC19606 (A. baumannii ATCC19606; ATCC19606): 12 µg/mL (≈ 8.37 µM)
- MIC A. baumannii ATCC19606 (A. baumannii ATCC19606; ATCC19606, pH 7.4): 8 to 16 µg/mL
- MIC K. pneumoniae NCTC418 (K. pneumoniae NCTC418; NCTC418): 48 µg/mL (≈ 33.5 µM)
- MIC K. pneumoniae NCTC418 (K. pneumoniae NCTC418; NCTC418, pH 7.4): 32 to 64 µg/mL
- MIC S. aureus COL (S. aureus COL MRSA; COL): 12 µg/mL (≈ 8.37 µM)
- MIC S. aureus COL MRSA (S. aureus COL MRSA; COL, pH 7.4): 8 to 16 µg/mL

Compound: CC(C)C[C@H](NC(=O)[C@H](CC(C)C)NC(=O)[C@@H](CC(C)C)NC(=O)[C@H](CCCCN)NC(=O)[C@@H](CC(C)C)NC(=O)[C@H](CC(C)C)NC(=O)[C@@H](CCCCN)NC(=O)[C@H](CC(C)C)NC(=O)[C@@H](CC(C)C)NC(=O)[C@H](CCCCN)NC(=O)[C@@H](N)CCCCN)C(N)=O [HP15, KKlLkLlKlLL]
- MIC E. coli W3110 (E. coli W3110; [2]): 8 µg/mL (≈ 6.05 µM)
- MIC P. aeruginosa PAO1 (P. aeruginosa PAO1; [2]): 16 µg/mL (≈ 12.1 µM)
- MIC P. aeruginosa PAO1 (P. aeruginosa PAO1; [3]): 16 µg/mL (≈ 12.1 µM)
- MIC A. baumannii ATCC19606 (A. baumannii ATCC19606; [2]): 32 to 64 µg/mL
- MIC A. baumannii ATCC19606 (A. baumannii ATCC19606; [3]): 48 µg/mL (≈ 36.3 µM)
- MIC K. pneumoniae NCTC418 (K. pneumoniae NCTC418; [2]): >64 µg/mL
- MIC S. aureus COL MRSA (S. aureus COL MRSA; [2]): >64 µg/mL
- EYPC vesicle leakage (%) [1]: 3%

Compound: CC(C)C[C@H](NC(=O)[C@H](CC(C)C)NC(=O)[C@H](CC(C)C)NC(=O)[C@@H](CCCCN)NC(=O)[C@@H](CC(C)C)NC(=O)[C@@H](CC(C)C)NC(=O)[C@@H](CCCCN)NC(=O)[C@@H](CC(C)C)NC(=O)[C@H](CC(C)C)NC(=O)[C@H](CCCCN)NC(=O)[C@@H](N)CCCCN)C(N)=O [HP29, KKLlkllkLLL]
- MIC E. coli W3110 (E. coli W3110; [2]): 2 µg/mL (≈ 1.51 µM)
- MIC P. aeruginosa PAO1 (P. aeruginosa PAO1; [2]): 4 µg/mL (≈ 3.03 µM)
- MIC P. aeruginosa PAO1 (P. aeruginosa PAO1; [3]): 4 µg/mL (≈ 3.03 µM)
- MIC A. baumannii ATCC19606 (A. baumannii ATCC19606; [2]): 8 µg/mL (≈ 6.05 µM)
- MIC A. baumannii ATCC19606 (A. baumannii ATCC19606; [3]): 8 µg/mL (≈ 6.05 µM)
- MIC K. pneumoniae NCTC418 (K. pneumoniae NCTC418; [2]): 64 µg/mL (≈ 48.4 µM)
- MIC K. pneumoniae NCTC418 (K. pneumoniae NCTC418; [3]): 64 µg/mL (≈ 48.4 µM)
- MIC S. aureus COL MRSA (S. aureus COL MRSA; [2]): 32 µg/mL (≈ 24.2 µM)
- MIC S. aureus COL (S. aureus COL MRSA; [3]): 32 µg/mL (≈ 24.2 µM)
- EYPC vesicle leakage (%) [1]: 6%

Compound: CC(C)C[C@H](NC(=O)[C@H](CCCCN)NC(=O)[C@H](N)CCCCN)C(=O)N[C@@H](CC(C)C)C(=O)N[C@H](CCCCN)C(=O)N[C@H](CC(C)C)C(=O)N[C@H](CC(C)C)C(=O)N[C@@H](CCCCN)C(=O)N[C@@H](CC(C)C)C(=O)N[C@@H](CC(C)C)C(=O)N[C@H](CC(C)C)C(N)=O [HP28, kKLLkllKLLl]
- MIC E. coli W3110 (E. coli W3110; [2]): 2 to 4 µg/mL
- MIC E. coli W3110 (E. coli W3110; [3]): 3 µg/mL (≈ 2.27 µM)
- MIC P. aeruginosa PAO1 (P. aeruginosa PAO1; [2]): 4 µg/mL (≈ 3.03 µM)
- MIC P. aeruginosa PAO1 (P. aeruginosa PAO1; [3]): 4 µg/mL (≈ 3.03 µM)
- MIC K. pneumoniae NCTC418 (K. pneumoniae NCTC418; [2]): >64 µg/mL
- MIC S. aureus COL MRSA (S. aureus COL MRSA; [2]): 32 µg/mL (≈ 24.2 µM)
- MIC S. aureus COL (S. aureus COL MRSA; [3]): 32 µg/mL (≈ 24.2 µM)
- EYPC vesicle leakage (%) [1]: 3%

Compound: CC(C)C[C@H](NC(=O)[C@H](CC(C)C)NC(=O)[C@H](CC(C)C)NC(=O)[C@H](CCCCN)NC(=O)[C@H](CC(C)C)NC(=O)[C@H](CC(C)C)NC(=O)[C@H](CCCCN)NC(=O)[C@@H](CC(C)C)NC(=O)[C@@H](CC(C)C)NC(=O)[C@@H](CCCCN)NC(=O)[C@@H](N)CCCCN)C(N)=O [HP8, KkllKLLKLLL]
- MIC P. aeruginosa ZEM-1A (P. aeruginosa ZEM-1A): 2 µg/mL (≈ 1.51 µM)

Compound: H-RRIIRIIRIII-NH2 [HP36]
- MHC (human red blood cells): 63 µg/mL
- MHC (human red blood cells; pH 7.4): 62.5 µg/mL
- MIC A. baumannii ATCC19606 (A. baumannii ATCC19606; ATCC19606): 12 µg/mL
- MIC A. baumannii ATCC19606 (A. baumannii ATCC19606; ATCC19606, pH 7.4): 8 to 16 µg/mL
- MIC S. aureus COL (S. aureus COL MRSA; COL): 24 µg/mL
- MIC S. aureus COL MRSA (S. aureus COL MRSA; COL, pH 7.4): 16 to 32 µg/mL
